Measured values taken from article PMC8459971, “Evaluation of the hepatotoxicity of the novel GPR40 (FFAR1) agonist CPL207280 in the rat and monkey” (PLoS ONE, 2021).
Values joined by “and” are separate entries in the source; they are usually repeats but may differ in a detail not shown here. Equal entries are not always repeated. Where two headings read alike, the source gives them in different places.

Experiments:
[1] = Viability assay, human primary hepatocytes, RT-glo, 48 h; type: cell-based; settings: human, primary human hepatocytes, sheet Fig1 panel C (primary human hepatocytes), 48 h, replicates, read-out: viability, normalized to DMSO-treated controls
Description: (§1) To study the viability of the liver cells, 5 × 10^3 HepG2 (ATCC®) or human primary cells (ThermoFisher Scientific, USA) were seeded in 100 μL of DMEM media (Gibco; Thermo Fisher Scientific, USA) supplemented with fetal bovine serum (FBS)- in a 96-well plate. […] The experiments were performed in triplicates.

[2] = system: human primary hepatocytes; test: as above; type: cell-based; settings: for viability, normalized to DMSO-treated controls: sheet Fig1 panel C (primary human hepatocytes), replicates, in % (unit assumed)
Description: as §1

[3] = Stability in microsomes, human; type: in vitro ADME; settings: for average DEG [%]: human microsomes, with cofactors
Description: The final incubation volume was 500 μL. Two control compounds (verapamil and donepezil) were included for each microsomal species, along with the appropriate vehicle control. The reactions were terminated by transferring 50 μL of incubate to 100 μL methanol containing an internal standard (metoprolol) at appropriate time points (0, 10, 20, 40, 60, and 120 min for the test compound and 0, 5, 10, 20, 40, and 60 min for the control compounds). The termination plates were centrifuged at 4000 x g at 4°C for 30 min to precipitate the protein. The supernatants were then collected for analysis, and LC-MS/MS was used for detection purposes. The system consisted of an Acquity™ Binary Solvent Manager, Acquity™ 4-position heated column manager, 2777 Ultra High Pressure Autosampler, and a Xevo-TQ MS triple quadrupole mass spectrometer (Waters Ltd., Herts, UK). This process was carried out twice.

[4] = Single-dose pharmacokinetics in rats (p.o. and i.v.); type: in vivo, rat; design: plasma conc: unit not given here
OAT1 = target: T1, OAT1 (Homo sapiens, UniProt Q4U2R8); test: Uptake transporter inhibition assay, OAT1; settings: for Accumulation (counts per minute; CPM) HEK293FT-MOCK / Accumulation (counts per minute; CPM) HEK293FT-OAT1: OAT1;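 note: HEK293FT cells expressing OAT1 or mock, uptake of radiolabeled probe substrate at 37 °C in HBSS pH 7.4 with test compound or solvent, cell lysate read by liquid scintillation counting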
T1 sequence (Q4U2R8 1-563): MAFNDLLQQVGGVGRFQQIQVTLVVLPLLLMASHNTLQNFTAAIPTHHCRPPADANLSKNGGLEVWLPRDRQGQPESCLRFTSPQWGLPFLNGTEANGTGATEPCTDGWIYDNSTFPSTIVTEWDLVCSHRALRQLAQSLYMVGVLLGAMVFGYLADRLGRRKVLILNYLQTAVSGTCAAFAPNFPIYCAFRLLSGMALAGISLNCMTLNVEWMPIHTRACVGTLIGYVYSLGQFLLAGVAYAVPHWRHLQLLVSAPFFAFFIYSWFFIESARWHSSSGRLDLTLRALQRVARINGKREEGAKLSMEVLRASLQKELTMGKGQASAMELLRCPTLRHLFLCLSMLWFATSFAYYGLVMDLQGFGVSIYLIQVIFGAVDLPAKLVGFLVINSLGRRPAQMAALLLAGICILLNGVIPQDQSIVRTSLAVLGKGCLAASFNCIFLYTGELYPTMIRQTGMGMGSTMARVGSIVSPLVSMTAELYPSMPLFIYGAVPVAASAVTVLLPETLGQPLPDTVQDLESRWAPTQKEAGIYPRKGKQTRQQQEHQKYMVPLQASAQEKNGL
Description: For the uptake transporter inhibition assay, cells were washed twice with 100 μL of the appropriate buffer (HK, pH 7.4) for OATP1B1, followed by HBSS (pH 7.4) for (NTCP, OAT1, OAT2v1, OATP1A2, and OATP1B3). Uptake experiments were carried out at 37 ± 1°C in 50 μL of the respective buffer containing the probe substrate and the compound or solvent. […] After the experiment, cells were washed twice with 100 μL of cold appropriate buffer and lysed with 50 μL of 0.1 M NaOH. Radiolabeled probe substrate transport was determined by measuring an aliquot (35 μL) from each well for liquid scintillation counting.

MRP2 = MRP2 (Homo sapiens, UniProt Q92887); test: Vesicular transport inhibition assay, MRP2; settings: for Accumulation (counts per minute; CPM) with AMP / Accumulation (counts per minute; CPM) with ATP: MRP2;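 note: membrane vesicles with probe substrate plus 2 mM glutathione, incubated with 4 mM ATP or AMP (AMP as background control), vesicle-retained substrate measured by liquid scintillation counting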;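 for Accumulation (counts per minute; CPM) with AMP: ATP 4 mM vs AMP background separates transporter uptake from diffusion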;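 for Accumulation (counts per minute; CPM) with ATP: ATP 4 mM vs AMP background separates transporter uptake from diffusion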
Sequence of MRP2 (Q92887 whole entry, the tested form may be a part): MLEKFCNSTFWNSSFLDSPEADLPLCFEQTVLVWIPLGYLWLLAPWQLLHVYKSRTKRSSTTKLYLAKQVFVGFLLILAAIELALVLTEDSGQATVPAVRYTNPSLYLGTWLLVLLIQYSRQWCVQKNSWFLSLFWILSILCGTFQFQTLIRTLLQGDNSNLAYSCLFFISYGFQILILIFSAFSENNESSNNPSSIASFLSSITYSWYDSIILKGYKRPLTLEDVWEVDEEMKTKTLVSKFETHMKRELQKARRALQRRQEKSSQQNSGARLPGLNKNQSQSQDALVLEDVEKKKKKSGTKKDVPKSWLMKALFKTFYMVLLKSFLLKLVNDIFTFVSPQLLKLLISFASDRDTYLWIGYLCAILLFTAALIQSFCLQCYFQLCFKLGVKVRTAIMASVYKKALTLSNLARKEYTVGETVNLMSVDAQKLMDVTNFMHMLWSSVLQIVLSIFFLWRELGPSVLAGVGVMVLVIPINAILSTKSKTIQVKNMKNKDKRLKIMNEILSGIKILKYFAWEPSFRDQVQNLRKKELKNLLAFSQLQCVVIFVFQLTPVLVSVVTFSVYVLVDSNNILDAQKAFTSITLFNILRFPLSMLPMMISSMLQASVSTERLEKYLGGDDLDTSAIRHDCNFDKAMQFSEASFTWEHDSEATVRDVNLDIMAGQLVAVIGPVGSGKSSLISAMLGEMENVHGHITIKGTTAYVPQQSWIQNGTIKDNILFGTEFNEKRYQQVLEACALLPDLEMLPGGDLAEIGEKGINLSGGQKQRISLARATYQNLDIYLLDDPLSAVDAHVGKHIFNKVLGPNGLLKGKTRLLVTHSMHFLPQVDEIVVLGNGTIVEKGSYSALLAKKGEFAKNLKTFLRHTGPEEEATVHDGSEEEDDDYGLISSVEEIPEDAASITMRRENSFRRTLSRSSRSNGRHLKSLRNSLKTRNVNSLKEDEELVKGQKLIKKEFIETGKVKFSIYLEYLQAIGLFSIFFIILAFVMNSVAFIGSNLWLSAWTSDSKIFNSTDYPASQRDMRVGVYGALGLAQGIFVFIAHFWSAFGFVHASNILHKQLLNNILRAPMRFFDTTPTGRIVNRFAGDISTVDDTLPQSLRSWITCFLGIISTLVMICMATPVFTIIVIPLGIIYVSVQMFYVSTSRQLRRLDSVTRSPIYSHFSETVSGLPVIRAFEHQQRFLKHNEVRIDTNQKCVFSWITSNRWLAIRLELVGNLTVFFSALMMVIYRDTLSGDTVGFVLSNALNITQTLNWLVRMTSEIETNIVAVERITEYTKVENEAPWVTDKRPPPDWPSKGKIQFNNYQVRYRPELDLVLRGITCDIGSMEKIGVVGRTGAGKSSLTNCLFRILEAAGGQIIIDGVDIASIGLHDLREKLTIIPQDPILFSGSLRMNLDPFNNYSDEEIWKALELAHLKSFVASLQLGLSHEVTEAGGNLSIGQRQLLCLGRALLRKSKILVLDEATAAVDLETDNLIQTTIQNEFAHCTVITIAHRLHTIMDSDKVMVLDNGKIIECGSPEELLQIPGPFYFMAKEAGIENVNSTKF
Description: In the vesicular transport inhibition assay (for BSEP, MRP) compounds were incubated with membrane vesicle preparations and the probe substrate. Incubations were carried out in the presence of 4 mM ATP or AMP to distinguish between transporter-mediated uptake and passive diffusion into the vesicles. For MRP2 and MRP3, reactions were carried out in the presence of 2 mM glutathione. Compounds were added to the reaction mixture in 0.75 μL of solvent (1% of the final incubation volume). […] Reactions were initiated by the addition of 25 μL of 12 mM MgATP (or 12 mM AMP in assay buffer as a background control) and preincubated separately. Reactions were quenched by the addition of 200 μL of ice-cold washing buffer and immediate filtration via glass fiber filters mounted on a 96-well plate (filter plate). The filters were washed (5 × 200 μL of ice-cold washing buffer), dried, and the amount of substrate inside the filtered vesicles was determined by liquid scintillation counting.

[5] = summary comparison CPL207280 vs TAK-875
[6] = rat, dose 200 mg/kg, Day 1, individual animals, 200 mg/kg

CC#C[C@@H](CC(=O)O)c1ccc(OCC(C)=C(C)C)cc1 [CPL207280]
viability at 48 h, 0.78 µM ([1]; 0.78 uM): 109% | viability at 48 h, 3.125 µM ([1]; 3.125 uM): 111% | viability at 48 h, 6.25 µM ([1]; 6.25 uM): 108% | viability at 48 h, 25 µM ([1]; 25 uM): 107% | viability at 48 h, 50 µM ([1]; 50 uM): 94.1% | viability at 48 h, 100 µM ([1]; 100 uM): 80.6% | viability ([2]; human primary hepatocytes, 48 h, concentrations up to 10 μM): Neither compound exhibited altered viability | reduction of viability ([2]; primary cells, 48 h, 100 μM): 20% | viability, normalized to DMSO-treated controls ([2]; 48 h, 0.78 uM): 113.603 and 101.249 | viability, normalized to DMSO-treated controls ([2]; 48 h, 3.125 uM): 114.319 and 102.513 | viability, normalized to DMSO-treated controls ([2]; 48 h, 6.25 uM): 112.73 and 100.537 | viability, normalized to DMSO-treated controls ([2]; 48 h, 25 uM): 106.605 and 99.5091 | viability, normalized to DMSO-treated controls ([2]; 48 h, 50 uM): 95.5759 and 86.1766 | viability, normalized to DMSO-treated controls ([2]; 48 h, 100 uM): 81.3191 and 75.1172 | Toxicity for human hepatocytes [2, 5]: < | half-life at 3 μM ([3]; Human microsomes, mean n = 2): 28 min | microsomal CLint at 3 μM ([3]; Human microsomes, mean n = 2): 49.2 µL/min/mg | stability classification in microsomes ([3]; based on the Clint values from different species, reference ranges by Cyprotex (human range given in legend)): unstable compound | average DEG [%] ([3]; 0 min): 100.0% | average DEG [%] ([3]; 20 min): 45.8942% | average DEG [%] ([3]; 40 min): 32.2635% | average DEG [%] ([3]; 60 min): 21.8% | AUC ([4]; Wistar Han, rat, plasma, oral, 200 mg/kg, rat, dose 200 mg/kg, Day 1, individual animals, read-out: exposure - AUC): 1240 µg·h/mL | plasma conc ([4]; rat, 3 mg/kg i.v., 0.08 h, single animals, 3 mg/kg): 18185.2 and 14086.9 and 17991 | plasma conc ([4]; rat, 3 mg/kg i.v., 0.5 h, single animals, 3 mg/kg): 13324.4 and 11131.5 and 13374.4 | plasma conc ([4]; rat, 3 mg/kg i.v., 1 h, single animals, 3 mg/kg): 9899.4 and 7427.8 and 10049.5 | plasma conc ([4]; rat, 3 mg/kg i.v., 2 h, single animals, 3 mg/kg): 3412.2 and 2931.7 and 2551.4 | plasma conc ([4]; rat, 3 mg/kg i.v., 4 h, single animals, 3 mg/kg): 1459.2 and 957.7 and 1370.6 | plasma conc ([4]; rat, 3 mg/kg i.v., 7 h, single animals, 3 mg/kg): 919.9 and 275.5 and 163.6 and 442.9 | plasma conc ([4]; rat, 3 mg/kg i.v., 12 h, single animals, 3 mg/kg): 109.4 and 40.7 and 9.1 and 38.7 | plasma conc ([4]; rat, 3 mg/kg p.o., 0.5 h, single animals, 3 mg/kg): 1251.2 and 962.3 and 1047.3 and 2942.9 and 2148.4 | plasma conc ([4]; rat, 3 mg/kg p.o., 1 h, single animals, 3 mg/kg): 1116.7 and 1016.5 and 1560.5 and 2895.7 and 1904.8 | plasma conc ([4]; rat, 3 mg/kg p.o., 2 h, single animals, 3 mg/kg): 850.9 and 932.5 and 1176.4 and 3463.8 and 1438.7 | plasma conc ([4]; rat, 3 mg/kg p.o., 4 h, single animals, 3 mg/kg): 878.1 and 1000.4 and 1366.6 and 4024.4 and 840.4 | plasma conc ([4]; rat, 3 mg/kg p.o., 8 h, single animals, 3 mg/kg): 569.6 and 2137.2 and 517.2 and 1993.4 and 909.2 | plasma conc ([4]; rat, 3 mg/kg p.o., 12 h, single animals, 3 mg/kg): 324.7 and 347.6 and 456.6 and 204.4 and 474.2 | plasma conc ([4]; rat, 3 mg/kg p.o., 24 h, single animals, 3 mg/kg): 48.1 and 66.5 and 10.8 and 7 and 230.9 | Cmax [4, 6]: 183679 ng/mL and 165539 ng/mL and 190632 ng/mL and 189701 ng/mL and 159390 ng/mL | exposure - AUC [4, 6]: 1896 µg·h/mL and 1692 µg·h/mL and 1420 µg·h/mL and 1892 µg·h/mL and 1506 µg·h/mL | Cmax ([4]; rat, plasma, 200 mg/kg, rat, dose 200 mg/kg, Day 1, individual animals, read-out: Cmax): 198000 ng/mL | concentration at 0.08 h ([4]; rat, plasma, iv, 3 mg/kg, rat, 3 mg/kg i.v., 0.08 h, single animals, read-out: plasma conc): 19200 ng/mL | concentration at 0.5 h ([4]; rat, plasma, iv, 3 mg/kg, rat, 3 mg/kg i.v., 0.5 h, single animals, read-out: plasma conc): 16300 ng/mL | concentration at 1 h ([4]; rat, plasma, iv, 3 mg/kg, rat, 3 mg/kg i.v., 1 h, single animals, read-out: plasma conc): 10900 ng/mL | concentration at 2 h ([4]; rat, plasma, iv, 3 mg/kg, rat, 3 mg/kg i.v., 2 h, single animals, read-out: plasma conc): 3720 ng/mL | concentration at 4 h ([4]; rat, plasma, iv, 3 mg/kg, rat, 3 mg/kg i.v., 4 h, single animals, read-out: plasma conc): 1570 ng/mL | Tmax ([4]; rat, plasma, iv, 3 mg/kg, rats, 3 mg/kg i.v.): 4.98 min | Cmax ([4]; rat, plasma, iv, 3 mg/kg, rats, 3 mg/kg i.v., n = 5, read-out: Cmax): 17400 ± 2250 ng/mL | AUC ([4]; rat, plasma, iv, 3 mg/kg, rats, 3 mg/kg i.v., read-out: AUC): 27.1 ± 1.62 µg·h/mL | bioavailability ([4]; rat, plasma, oral, rats, 3 mg/kg p.o. vs i.v., read-out: F (bioavailability)): 63% | Tmax ([4]; rat, plasma, po, 3 mg/kg, rats, 3 mg/kg p.o.): 60 min | AUC ([4]; rat, plasma, po, 3 mg/kg, rats, 3 mg/kg p.o., read-out: AUC): 17.6 ± 4.08 µg·h/mL | Vd ([4]; rat, plasma, rats, 3 mg/kg): 0.2 ± 0.01 L/kg | k el ([4]; rat, plasma, rats, 3 mg/kg): 0.000144 s⁻¹ | greater Kel than TAK-875 ([4]; rats, 3 mg/kg): 2 x | Bioavailability in rats [4, 5]: > | Exposure in rat plasma for the same dose [4, 5]: ≥ | IC50 (OAT1): 245 µM | fold less inhibitory potency than TAK-875, OAT1 (OAT1): at least 10 fold | Accumulation (counts per minute; CPM) HEK293FT-MOCK (OAT1; conc 0.10 µM): 50 CPM and 53 CPM | Accumulation (counts per minute; CPM) HEK293FT-OAT1 (OAT1; conc 0.10 µM): 3966 CPM and 4397 CPM | Accumulation (counts per minute; CPM) HEK293FT-MOCK (OAT1; conc 1.00 µM): 48 CPM and 53 CPM | Accumulation (counts per minute; CPM) HEK293FT-OAT1 (OAT1; conc 1.00 µM): 3796 CPM and 3875 CPM | Accumulation (counts per minute; CPM) HEK293FT-MOCK (OAT1; conc 3.00 µM): 43 CPM | Accumulation (counts per minute; CPM) HEK293FT-OAT1 (OAT1; conc 3.00 µM): 3567 CPM and 3805 CPM | Accumulation (counts per minute; CPM) HEK293FT-OAT1 (OAT1; conc 10.00 µM): 3588 CPM and 3708 CPM | Accumulation (counts per minute; CPM) HEK293FT-MOCK (OAT1; conc 30.00 µM): 36 CPM and 51 CPM | Accumulation (counts per minute; CPM) HEK293FT-OAT1 (OAT1; conc 30.00 µM): 3509 CPM and 3520 CPM | Accumulation (counts per minute; CPM) HEK293FT-MOCK (OAT1; conc 100.00 µM): 35 CPM and 46 CPM | Accumulation (counts per minute; CPM) HEK293FT-OAT1 (OAT1; conc 100.00 µM): 2841 CPM and 2828 CPM | Accumulation (counts per minute; CPM) HEK293FT-MOCK (OAT1; conc 300.00 µM): 36 CPM and 54 CPM | Accumulation (counts per minute; CPM) HEK293FT-OAT1 (OAT1; conc 300.00 µM): 1655 CPM and 1827 CPM | Accumulation (counts per minute; CPM) with AMP (MRP2; conc 0.10 µM): 198 CPM and 164 CPM | Accumulation (counts per minute; CPM) with ATP (MRP2; conc 0.10 µM): 2936 CPM and 2989 CPM | Accumulation (counts per minute; CPM) with AMP (MRP2; conc 1.00 µM): 160 CPM and 140 CPM | Accumulation (counts per minute; CPM) with ATP (MRP2; conc 1.00 µM): 2976 CPM and 3333 CPM | Accumulation (counts per minute; CPM) with AMP (MRP2; conc 3.00 µM): 225 CPM and 205 CPM | Accumulation (counts per minute; CPM) with ATP (MRP2; conc 3.00 µM): 3200 CPM and 3253 CPM | Accumulation (counts per minute; CPM) with AMP (MRP2; conc 10.00 µM): 218 CPM and 206 CPM | Accumulation (counts per minute; CPM) with ATP (MRP2; conc 10.00 µM): 3353 CPM and 3206 CPM | Accumulation (counts per minute; CPM) with AMP (MRP2; conc 30.00 µM): 203 CPM and 192 CPM | Accumulation (counts per minute; CPM) with ATP (MRP2; conc 30.00 µM): 3191 CPM and 3541 CPM | Accumulation (counts per minute; CPM) with AMP (MRP2; conc 100.00 µM): 195 CPM and 185 CPM | Accumulation (counts per minute; CPM) with ATP (MRP2; conc 100.00 µM): 3680 CPM and 3660 CPM | Accumulation (counts per minute; CPM) with AMP (MRP2; conc 300.00 µM): 129 CPM and 125 CPM | Accumulation (counts per minute; CPM) with ATP (MRP2; conc 300.00 µM): 3852 CPM and 4100 CPM | MRP2 Estimated IC50 (95% CI of IC50) (MRP2; vesicles, up to 300μM, n = 2): no affinity
